Article PMC12888861, “Antibacterial activity of enmetazobactam against Acinetobacter spp.: a molecular dissection of mechanism of action and resistance determinants” (Antimicrobial Agents and Chemotherapy, 2025)

Legend:
[1] = tested on: carbapenem-susceptible A. baumannii isolates (n = 54); assay: MIC, broth microdilution (EUCAST), carbapenem-susceptible A. baumannii isolates; assay type: cell-based, Acinetobacter baumannii
Excerpt: The bacterial strains used in this study comprised 208 clinical isolates from the Spanish National Acinetobacter spp. 2020 Multicenter Collection, which was previously characterized in detail by our research group, including whole-genome sequencing, phylogenetics studies, clonal dynamics, and resistance mechanisms ([2], [29]). Additionally, a collection of A. baumannii ATCC 17978 transformants coding the blaOXA-23, blaOXA-24/40, blaOXA-51, blaOXA-58, blaOXA-143, and blaOXA-201 genes, previously constructed and described by our group ([30]), was used to determine the activity of enmetazobactam against strains carrying the main CHDLs of A. baumannii.
The antimicrobial susceptibility of the 208 Acinetobacter spp. isolates was assessed using the broth microdilution method, as described in the European Committee on Antimicrobial Susceptibility Testing (EUCAST) v.15 guidelines (http://www.eucast.org/clinical_breakpoints). […] MICs for enmetazobactam alone were assessed as well. […] Subsequently, MIC testing was also conducted with a collection of A. baumannii ATCC 17978 transformants expressing clinically relevant OXA-like carbapenemase genes.
The A. baumannii ATCC 19606 strain was used as the reference strain in all susceptibility experiments, in duplicate assays. Antibiotics were purchased from Sigma-Aldrich, except enmetazobactam and durlobactam, which were obtained from Advanz Pharma and MedChemExpress, respectively.

[2] = tested on: A. baumannii ATCC 19606 cells; assay: Cell morphology assay, bright-field microscopy; assay type: cell-based, Acinetobacter baumannii
Protocol: In order to confirm the involvement of PBPs as targets of enmetazobactam, cell morphology assays involving exposure to enmetazobactam and sulbactam were performed following the methodology described in Supplementary materials and methods.
To confirm the involvement of PBPs as targets of enmetazobactam, the cellular morphology of A. baumannii ATCC 19606 reference strain was analyzed after exposure to the compound at different concentrations. Bright-field microscopy was used to monitor the cell morphology. […] For microscopic visualization, aliquots of each sample were obtained, stained with crystal violet solution and observed using an Olympus BX61 microscope (Olympus).
Changes in cell morphology were determined on the basis of alterations in septal integrity, abnormal elongation, spheroplast formation and filamentation, patterns previously associated with the selective inhibition of PBP1, PBP2 and PBP3 in Gram-negative bacilli. Specifically, PBP1 inhibition has been linked to cell lysis, PBP2 inhibition has been linked to spherification, and PBP3 inhibition to defective cell division and filament formation (1, 2). The results were qualitatively compared across different treatments to infer the potential selectivity of enmetazobactam for specific PBPs.

[3] = Acinetobacter baumannii, carbapenem-susceptible A. baumannii isolates (n = 54), ETZ fixed 8 mg/L in combinations

C[n+]1ccn(C[C@@]2(C)[C@H](C(=O)[O-])N3C(=O)C[C@H]3S2(=O)=O)n1 [enmetazobactam]
elongated filaments: cell morphology ([2]; A. baumannii ATCC 19606, overnight exposure at 1× MIC)
4 µg/mL: MIC ([1]; Acinetobacter baumannii, MBC set, isolate Ab34, A. baumannii ST 2182, ADC-2, OXA-130, non-CHDLs-producing) | MIC ([1]; Acinetobacter baumannii, isolate Ab1, ST 164, ADC-6, OXA-91, in combinations ETZ fixed at 8 mg/L) | MIC ([1]; Acinetobacter baumannii, isolate Ab11, ST 239, ADC-2, OXA-51, in combinations ETZ fixed at 8 mg/L) | MIC ([1]; Acinetobacter baumannii, isolate Ab34, ST 2182, ADC-2, OXA-130, in combinations ETZ fixed at 8 mg/L) | MIC ([1]; Acinetobacter baumannii, isolate Ab38, ST 866, ADC-2, OXA-385, in combinations ETZ fixed at 8 mg/L) | MIC ([1]; Acinetobacter baumannii, isolate Ab40, ST 2176, ADC-2, OXA-64, in combinations ETZ fixed at 8 mg/L) | MIC ([1]; Acinetobacter baumannii, isolate Ab50, ST 2176, ADC-2, OXA-64, in combinations ETZ fixed at 8 mg/L) | MIC ([1]; Acinetobacter baumannii, isolate Ab58, ST 6, ADC-2, OXA-94, in combinations ETZ fixed at 8 mg/L) | MIC ([1]; Acinetobacter baumannii, isolate Ab61, ST 1639, ADC-7, OXA-64, in combinations ETZ fixed at 8 mg/L) | MIC ([1]; Acinetobacter baumannii, isolate Ab62, ST 265, ADC-2, OXA-91, in combinations ETZ fixed at 8 mg/L) | MIC ([1]; Acinetobacter baumannii, isolate Ab67, ST 1, ADC-11, OXA-69, in combinations ETZ fixed at 8 mg/L) | MIC ([1]; Acinetobacter baumannii, isolate Ab79, ST 106, ADC-11, OXA-78, in combinations ETZ fixed at 8 mg/L) | MIC ([1]; Acinetobacter baumannii, isolate Ab80, ST 2182, ADC-6, OXA-208, in combinations ETZ fixed at 8 mg/L) | MIC ([1]; Acinetobacter baumannii, isolate Ab81, ST 25, ADC-79, OXA-64, in combinations ETZ fixed at 8 mg/L) | MIC ([1]; Acinetobacter baumannii, isolate Ab93, ST 25, ADC-79, OXA-64, in combinations ETZ fixed at 8 mg/L) | MIC ([1]; Acinetobacter baumannii, isolate Ab110, ST 1623, ADC-3, OXA-70, in combinations ETZ fixed at 8 mg/L) | MIC ([1]; Acinetobacter baumannii, isolate Ab127, ST 2176, ADC-2, OXA-64, in combinations ETZ fixed at 8 mg/L) | MIC ([1]; Acinetobacter baumannii, isolate Ab136, ST 2183, ADC-like, OXA-66, in combinations ETZ fixed at 8 mg/L) | MIC ([1]; Acinetobacter baumannii, isolate Ab139, ST 54, ADC-like, OXA-365, in combinations ETZ fixed at 8 mg/L) | MIC ([1]; Acinetobacter baumannii, isolate Ab143, ST 1328, ADC-76, OXA-408, in combinations ETZ fixed at 8 mg/L) | MIC ([1]; Acinetobacter baumannii, isolate Ab150, ST 2184, ADC-like, OXA-64, in combinations ETZ fixed at 8 mg/L) | MIC ([1]; Acinetobacter baumannii, isolate Ab152, ST 132, ADC-2, OXA-120, in combinations ETZ fixed at 8 mg/L) | MIC ([1]; Acinetobacter baumannii, isolate Ab170, ST 2110, ADC-4, OXA-338, in combinations ETZ fixed at 8 mg/L) | MIC ([1]; Acinetobacter baumannii, isolate Ab185, ST 2, ADC-26, OXA-66, in combinations ETZ fixed at 8 mg/L) | MIC ([1]; Acinetobacter baumannii, isolate Ab188, ST 203, ADC-6, OXA-217, PDC-1, in combinations ETZ fixed at 8 mg/L) | MIC90 [1, 3]
8 µg/mL: MIC ([1]; Acinetobacter baumannii, isolate Ab142, ST 1, ADC-like, OXA-69, in combinations ETZ fixed at 8 mg/L) | MIC ([1]; Acinetobacter baumannii, isolate Ab149, ST 1112, ADC-6, OXA-407, in combinations ETZ fixed at 8 mg/L)
3.7: MIC distribution 1 ([1]; cumulative share of carbapenem-susceptible A. baumannii isolates (n = 54) at MIC 1 mg/L, ETZ fixed 8 mg/L in combinations)
2 µg/mL: MIC ([1]; Acinetobacter baumannii, MBC set, isolate Ab1, A. baumannii ST 164, ADC-6, OXA-91, non-CHDLs-producing) | MIC ([1]; Acinetobacter baumannii, MBC set, isolate Ab11, A. baumannii ST 239, ADC-2, OXA-51, non-CHDLs-producing) | MIC ([1]; Acinetobacter baumannii, isolate Ab57, ST 1470, ADC-58, OXA-106, in combinations ETZ fixed at 8 mg/L) | MIC ([1]; Acinetobacter baumannii, isolate Ab95, ST 582, ADC-5, OXA-317, in combinations ETZ fixed at 8 mg/L) | MIC ([1]; Acinetobacter baumannii, isolate Ab96, ST 582, ADC-5, OXA-317, in combinations ETZ fixed at 8 mg/L) | MIC ([1]; Acinetobacter baumannii, isolate Ab100, ST 145, ADC-58, OXA-343, in combinations ETZ fixed at 8 mg/L) | MIC ([1]; Acinetobacter baumannii, isolate Ab112, ST 193, ADC-like, OXA-120, in combinations ETZ fixed at 8 mg/L) | MIC ([1]; Acinetobacter baumannii, isolate Ab124, ST 2176, ADC-2, OXA-64, in combinations ETZ fixed at 8 mg/L) | MIC ([1]; Acinetobacter baumannii, isolate Ab128, ST 2176, ADC-2, OXA-64, in combinations ETZ fixed at 8 mg/L) | MIC ([1]; Acinetobacter baumannii, isolate Ab130, ST 32, ADC-79, OXA-100, in combinations ETZ fixed at 8 mg/L) | MIC ([1]; Acinetobacter baumannii, isolate Ab131, ST 687, ADC-like, OXA-208, in combinations ETZ fixed at 8 mg/L) | MIC ([1]; Acinetobacter baumannii, isolate Ab132, ST 1112, ADC-79, OXA-89, in combinations ETZ fixed at 8 mg/L) | MIC ([1]; Acinetobacter baumannii, isolate Ab158, ST 2034, ADC-2, OXA-217, in combinations ETZ fixed at 8 mg/L) | MIC ([1]; Acinetobacter baumannii, isolate Ab163, ST 132, ADC-2, OXA-120, in combinations ETZ fixed at 8 mg/L) | MIC ([1]; Acinetobacter baumannii, isolate Ab167, ST 1623, ADC-like, OXA-345, in combinations ETZ fixed at 8 mg/L) | MIC ([1]; Acinetobacter baumannii, isolate Ab168, ST 1470, ADC-75, OXA-402, in combinations ETZ fixed at 8 mg/L) | MIC ([1]; Acinetobacter baumannii, isolate Ab172, ST 2185, ADC-5, OXA-217, in combinations ETZ fixed at 8 mg/L) | MIC ([1]; Acinetobacter baumannii, isolate Ab187, ST 105, ADC-2, OXA-430, in combinations ETZ fixed at 8 mg/L) | MIC ([1]; Acinetobacter baumannii, isolate Ab189, ST 1405, ADC-3, OXA-120, in combinations ETZ fixed at 8 mg/L) | MIC ([1]; Acinetobacter baumannii, isolate Ab190, ST 2186, ADC-6, OXA-413, in combinations ETZ fixed at 8 mg/L) | MIC ([1]; Acinetobacter baumannii, isolate Ab193, ST 164, ADC-6, OXA-91, in combinations ETZ fixed at 8 mg/L) | MIC ([1]; Acinetobacter baumannii, isolate Ab195, ST 1, ADC-11, OXA-69, in combinations ETZ fixed at 8 mg/L) | MIC ([1]; Acinetobacter baumannii, isolate Ab200, ST 1336, ADC-2, OXA-51, in combinations ETZ fixed at 8 mg/L) | MIC ([1]; Acinetobacter baumannii, isolate Ab202, ST 1, ADC-11, OXA-69, in combinations ETZ fixed at 8 mg/L) | MIC ([1]; Acinetobacter baumannii, isolate Ab203, ST 221, ADC-6, OXA-88, in combinations ETZ fixed at 8 mg/L) | MIC ([1]; Acinetobacter baumannii, isolate Ab206, ST 2187, ADC-58, OXA-69, in combinations ETZ fixed at 8 mg/L) | MIC ([1]; Acinetobacter baumannii, isolate Ab213, in combinations ETZ fixed at 8 mg/L) | MIC ([1]; Acinetobacter baumannii, isolate Ab218, in combinations ETZ fixed at 8 mg/L) | MIC50 [1, 3]
100: MIC distribution 8 ([1]; cumulative share of carbapenem-susceptible A. baumannii isolates (n = 54) at MIC 8 mg/L, ETZ fixed 8 mg/L in combinations) | MIC distribution 16 ([1]; cumulative share of carbapenem-susceptible A. baumannii isolates (n = 54) at MIC 16 mg/L, ETZ fixed 8 mg/L in combinations) | MIC distribution ≥32 ([1]; cumulative share of carbapenem-susceptible A. baumannii isolates (n = 54) at MIC ≥32 mg/L, ETZ fixed 8 mg/L in combinations)
1 µg/mL: MIC ([1]; Acinetobacter baumannii, isolate Ab209, in combinations ETZ fixed at 8 mg/L) | MIC ([1]; Acinetobacter baumannii, isolate Ab220, in combinations ETZ fixed at 8 mg/L)
96.3: MIC distribution 4 ([1]; cumulative share of carbapenem-susceptible A. baumannii isolates (n = 54) at MIC 4 mg/L, ETZ fixed 8 mg/L in combinations)
0: MIC distribution 0.12 [1] | MIC distribution 0.25 ([1]; cumulative share of carbapenem-susceptible A. baumannii isolates (n = 54) at MIC 0.25 mg/L, ETZ fixed 8 mg/L in combinations) | MIC distribution 0.5 ([1]; cumulative share of carbapenem-susceptible A. baumannii isolates (n = 54) at MIC 0.5 mg/L, ETZ fixed 8 mg/L in combinations) | MIC distribution ≤0.06 ([1]; cumulative share of carbapenem-susceptible A. baumannii isolates (n = 54) at MIC ≤0.06 mg/L, ETZ fixed 8 mg/L in combinations)
the filaments shortened in length: cell morphology ([2]; A. baumannii ATCC 19606, overnight exposure at 2× MIC)
51.9: MIC distribution 2 ([1]; cumulative share of carbapenem-susceptible A. baumannii isolates (n = 54) at MIC 2 mg/L, ETZ fixed 8 mg/L in combinations)
